How the values were obtained:
Format in all cases: physicochemical
[1] = Solubility measurement in various solvents at 25° C. (Procedure 1); settings: thermodynamic from solid
Protocol: (§1) The solubility of Compound 1 Di-Hydrochloric Acid Salt Form I was measured according to Procedure 1 for solubility in 25° C. (Table 5) and Procedure 2 for 50° C. [table] [table]

[2] = Competitive slurry experiments, stability relationship of polymorphs in 10% water/acetone
Protocol: To evaluate the transformation of Compound 1 Di-Hydrochloric Acid Salt solid forms, competitive slurry experiments at 25±1° C. and 60±1° C. in the solvent of 10% water/acetone were performed with a mixture of eight polymorphs (Form I, and Form III through Form IX) as described in Table 23 and Table 24. [table] [table]

[3] = Solubility measurement in various solvents at 50° C. (Procedure 2)
Protocol: as §1

[4] = 2% water in acetone, organic solvent or mixture
[5] = 2% water in acetonitrile, organic solvent or mixture
[6] = 2-methoxyethanol, organic solvent or mixture
[7] = 5% water in acetone, organic solvent or mixture
[8] = 5% water in acetonitrile, organic solvent or mixture
[9] = 10% water in acetone, organic solvent or mixture
[10] = 10% water in acetonitrile, organic solvent or mixture
[11] = DMF, organic solvent or mixture
[12] = DMSO, organic solvent or mixture
[13] = EtOH, organic solvent or mixture
[14] = IPA, organic solvent or mixture
[15] = MeCN, organic solvent or mixture
[16] = acetone, organic solvent or mixture
[17] = chloroform, organic solvent or mixture

Question: What does the source list for `Cl.Cl.Cn1c(C(=O)Nc2cccc(-c3cccc(NC(=O)c4nc5c(n4C)CCN(CCC46CCC(C(=O)O)(CC4)C6)C5)c3Cl)c2Cl)nc2c1CCN(CCC13CCC(C(=O)O)(CC1)C3)C2` [4,4′-(((((2,2′-dichloro-[1,1′-biphenyl]-3,3′-diyl)bis(azanediyl))bis(carbonyl))bis(1-methyl-1,4,6,7-tetrahydro-5H-imidazo[4,5-c]pyridine-2,5-diyl))bis(ethane-2,1-diyl))bis(bicyclo[2.2.1]heptane-1-carboxylic acid) di-hydrochloric acid salt]?
Answer: solubility [1, 4]: 50 µg/mL; solubility [1, 5]: 10 µg/mL; solubility [1, 6]: 16900 µg/mL; solubility [1, 7]: 320 µg/mL; solubility [1, 8]: 1040 µg/mL; solubility [1, 9]: 2300 µg/mL; solubility [1, 10]: 3640 µg/mL; solubility [1, 11]: 2980 µg/mL; solubility [1, 12]: > 50000 µg/mL; solubility [1, 13]: 390 µg/mL; solubility [1, 14]: 650 µg/mL; solubility ([1]; IPAc, organic solvent or mixture): 10 µg/mL; solubility [1, 15]: 20 µg/mL; solubility ([1]; THF, organic solvent or mixture): 50 µg/mL; solubility [1, 16]: 10 µg/mL; solubility [1, 17]: > 50000 µg/mL; solubility ([1]; organic solvent or mixture, 1-Propanol, solid phase Form V): 710 µg/mL; solubility ([1]; organic solvent or mixture, Methanol, solid phase Form III): 18800 µg/mL; solubility ([1]; organic solvent or mixture, n-BuOH, solid phase Form IV): 460 µg/mL; solubility ([1]; Water, solid phase Form VI): 12900 µg/mL; Relative stability of polymorphic forms ([2]; 10% water/acetone at 25 and 60° C., competitive slurry): most stable polymorphic form; solubility ([3]; 1,4-dioxane, organic solvent or mixture): 10 µg/mL; solubility ([3]; 1-propanol, organic solvent or mixture): 1120 µg/mL; solubility [3, 4]: 110 µg/mL; solubility [3, 5]: 10 µg/mL; solubility [3, 6]: 28300 µg/mL; solubility [3, 7]: 560 µg/mL; solubility [3, 8]: 1210 µg/mL; solubility [3, 9]: 5710 µg/mL; solubility [3, 10]: 6610 µg/mL; solubility [3, 11]: 5480 µg/mL; solubility [3, 12]: > 50000 µg/mL; solubility [3, 13]: 1100 µg/mL; solubility [3, 14]: 980 µg/mL; solubility ([3]; MEK, organic solvent or mixture): 150 µg/mL; solubility ([3]; MIBK, organic solvent or mixture): 10 µg/mL; solubility [3, 15]: 10 µg/mL; solubility ([3]; THF, organic solvent or mixture, thermodynamic from solid): 40 µg/mL; solubility [3, 16]: 10 µg/mL; solubility [3, 17]: > 50000 µg/mL; solubility ([3]; methanol, organic solvent or mixture, thermodynamic from solid): 22100 µg/mL; solubility ([3]; organic solvent or mixture, thermodynamic from solid, n-BuOH, solid phase Form IV): 420 µg/mL; solubility ([3]; thermodynamic from solid, Water, solid phase Form VI): 14800 µg/mL

Question: For `Cl.Cl.Cn1c(C(=O)Nc2cccc(-c3cccc(NC(=O)c4nc5c(n4C)CCN(CCC46CCC(C(=O)O)(CC4)C6)C5)c3Cl)c2Cl)nc2c1CCN(CCC13CCC(C(=O)O)(CC1)C3)C2` [Form III, 4,4′-(((((2,2′-dichloro-[1,1′-biphenyl]-3,3′-diyl)bis(azanediyl))bis(carbonyl))bis(1-methyl-1,4,6,7-tetrahydro-5H-imidazo[4,5-c]pyridine-2,5-diyl))bis(ethane-2,1-diyl))bis(bicyclo[2.2.1]heptane-1-carboxylic acid) di-hydrochloric acid salt], which “Polymorph transformation in competitive slurry (XRPD)” value ([2]; mixture of polymorphs stirred in 10% water/acetone at 25±° C. for 20 hours and at 60±° C. for 2 h) is on record?
Answer: Its value is “converted to Form I”.

Source: US11866451B2, “Salts and crystalline forms of a PD-1/PD-L1 inhibitor” (Incyte Corporation, priority 2019, dated 2024)
